Source: patent US10851102B2, “Imidazole and triazole containing bicyclic compounds as JAK inhibitors” (THERAVANCE BIOPHARMA R&D IP, LLC, priority 2019, dated 2020)
pKi: −log10 of the molar value. Like-named read-outs stand apart in the source and are kept apart here.

Experiments:
JAK3 = JAK3 (Homo sapiens (Human), UniProt P52333); test: Biochemical JAK and Tyk2 kinase assays (LanthaScreen): JAK3; settings: for JAK3 (pKi)-JAK1 (pKi): difference of pKi values, selectivity JAK3 over JAK1; for Ki: read-out: JAK 3 (pKi) (converted)
JAK3, sequence (P52333 whole entry): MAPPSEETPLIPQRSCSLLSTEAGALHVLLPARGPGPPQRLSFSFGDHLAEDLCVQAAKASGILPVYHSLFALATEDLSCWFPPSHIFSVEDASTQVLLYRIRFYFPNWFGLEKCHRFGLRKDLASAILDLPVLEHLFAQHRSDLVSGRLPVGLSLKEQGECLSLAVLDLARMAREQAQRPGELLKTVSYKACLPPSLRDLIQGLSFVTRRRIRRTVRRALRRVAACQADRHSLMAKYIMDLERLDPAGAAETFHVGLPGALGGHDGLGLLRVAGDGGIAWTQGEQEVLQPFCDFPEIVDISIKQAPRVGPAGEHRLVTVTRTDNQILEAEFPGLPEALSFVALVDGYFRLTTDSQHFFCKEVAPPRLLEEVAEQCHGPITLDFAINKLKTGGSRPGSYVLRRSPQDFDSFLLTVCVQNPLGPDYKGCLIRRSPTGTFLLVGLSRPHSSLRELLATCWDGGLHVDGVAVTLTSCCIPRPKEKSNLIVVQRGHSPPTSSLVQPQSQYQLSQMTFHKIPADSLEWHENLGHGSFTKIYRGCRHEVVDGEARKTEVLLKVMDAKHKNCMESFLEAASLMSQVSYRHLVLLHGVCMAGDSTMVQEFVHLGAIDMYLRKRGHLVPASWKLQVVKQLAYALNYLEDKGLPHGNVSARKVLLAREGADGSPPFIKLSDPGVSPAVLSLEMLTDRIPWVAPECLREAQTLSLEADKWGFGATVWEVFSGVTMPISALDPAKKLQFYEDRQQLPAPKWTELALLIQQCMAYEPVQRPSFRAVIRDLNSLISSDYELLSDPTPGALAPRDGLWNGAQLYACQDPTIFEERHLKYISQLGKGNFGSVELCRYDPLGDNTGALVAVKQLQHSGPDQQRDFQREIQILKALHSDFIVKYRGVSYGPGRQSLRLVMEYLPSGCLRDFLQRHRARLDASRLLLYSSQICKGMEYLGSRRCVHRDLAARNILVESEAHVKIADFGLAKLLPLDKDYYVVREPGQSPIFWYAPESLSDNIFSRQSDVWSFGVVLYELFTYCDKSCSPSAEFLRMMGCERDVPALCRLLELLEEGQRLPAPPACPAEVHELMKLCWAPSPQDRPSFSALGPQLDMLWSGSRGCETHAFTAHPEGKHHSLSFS
Protocol: (§1) Assay 1: Biochemical JAK and Tyk2 Kinase Assays
(§2) A panel of four LanthaScreen JAK biochemical assays (JAK1, 2, 3 and Tyk2) were carried in a common kinase reaction buffer (50 mM HEPES, pH 7.5, 0.01% Brij-35, 10 mM MgCl2, and 1 mM EGTA). Recombinant GST-tagged JAK enzymes and a GFP-tagged STAT1 peptide substrate were obtained from Life Technologies.
(§3) Serially or discretely diluted compounds were pre-incubated with each of the four JAK enzymes and the substrate in white 384-well microplates (Corning) at ambient temperature for 1 h. ATP was subsequently added to initiate the kinase reactions in 10 μL total volume, with 1% DMSO. […] Kinase reactions were allowed to proceed for 1 hour at ambient temperature before a 10 μL preparation of EDTA (10 mM final concentration) and Tb-anti-pSTAT1 (pTyr701) antibody (Life Technologies, 2 nM final concentration) in TR-FRET dilution buffer (Life Technologies) was added. The plates were allowed to incubate at ambient temperature for 1 h before being read on the EnVision reader (Perkin Elmer). Emission ratio signals (520 nm/495 nm) were recorded and utilized to calculate the percent inhibition values based on DMSO and background controls.
(§4) For dose-response analysis, percent inhibition data were plotted vs. compound concentrations, and IC50 values were determined from a 4-parameter robust fit model with the Prism software (GraphPad Software). Results were expressed as pIC50 (negative logarithm of IC50) and subsequently converted to pKi (negative logarithm of dissociation constant, Ki) using the Cheng-Prusoff equation.

JAK1 = JAK1 (Homo sapiens (Human), UniProt P23458); test: Biochemical JAK and Tyk2 kinase assays (LanthaScreen): JAK1; settings: 1 h pre-incubation, ATP at Km; pIC50 converted to pKi by Cheng-Prusoff
JAK1, sequence (P23458 whole entry): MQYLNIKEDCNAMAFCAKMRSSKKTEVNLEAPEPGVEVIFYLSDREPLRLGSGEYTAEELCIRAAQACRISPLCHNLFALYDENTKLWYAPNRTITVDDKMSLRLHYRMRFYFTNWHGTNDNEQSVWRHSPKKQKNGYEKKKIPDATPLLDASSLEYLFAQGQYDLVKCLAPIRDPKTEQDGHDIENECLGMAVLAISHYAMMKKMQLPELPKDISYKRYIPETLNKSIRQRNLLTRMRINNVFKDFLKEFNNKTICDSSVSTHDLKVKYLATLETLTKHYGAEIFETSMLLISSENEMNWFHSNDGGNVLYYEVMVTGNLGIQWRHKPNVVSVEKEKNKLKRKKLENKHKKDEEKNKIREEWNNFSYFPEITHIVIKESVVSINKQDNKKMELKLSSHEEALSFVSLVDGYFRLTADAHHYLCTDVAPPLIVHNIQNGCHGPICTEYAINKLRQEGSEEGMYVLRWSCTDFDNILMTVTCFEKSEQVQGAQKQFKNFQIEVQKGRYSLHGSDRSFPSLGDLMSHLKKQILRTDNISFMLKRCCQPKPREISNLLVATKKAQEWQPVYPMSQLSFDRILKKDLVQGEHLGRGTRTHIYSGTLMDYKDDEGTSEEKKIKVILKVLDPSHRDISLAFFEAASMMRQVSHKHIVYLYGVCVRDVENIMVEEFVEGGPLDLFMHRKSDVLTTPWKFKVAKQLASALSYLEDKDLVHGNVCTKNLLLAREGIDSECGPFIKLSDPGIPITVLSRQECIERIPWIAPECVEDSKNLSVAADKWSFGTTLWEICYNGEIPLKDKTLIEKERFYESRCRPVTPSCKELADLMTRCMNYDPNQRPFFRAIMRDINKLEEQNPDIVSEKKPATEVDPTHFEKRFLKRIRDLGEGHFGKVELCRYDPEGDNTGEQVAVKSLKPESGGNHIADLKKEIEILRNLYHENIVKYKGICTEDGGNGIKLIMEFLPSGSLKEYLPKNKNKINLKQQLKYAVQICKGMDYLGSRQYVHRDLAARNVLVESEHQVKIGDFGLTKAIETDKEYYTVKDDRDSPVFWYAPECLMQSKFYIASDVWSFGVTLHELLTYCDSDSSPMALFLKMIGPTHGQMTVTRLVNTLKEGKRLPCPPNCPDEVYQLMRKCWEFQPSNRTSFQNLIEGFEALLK
Protocol: as §1, §2, §3, §4

[1] = system: IL-2 stimulated pSTAT5 in Tall-1 T cells (JAK3); test: Cellular JAK3 potency assay: inhibition of IL-2 stimulated pSTAT5 in Tall-1 T cells; format: cell-based; settings: IL-2 300 ng/ml, pSTAT5 AlphaLisa, Tall-1 human T cell line; read-out: Tall-1 (pIC50) (converted)
Protocol: Assay 2: Cellular JAK3 Potency Assay: Inhibition of IL-2 Stimulated pSTAT5 in Tall-1 T Cells
The potency of test compounds for inhibition of interleukin-2 (IL-2) stimulated STATS phosphorylation was measured in the Tall-1 human T cell line (DSMZ) using AlphaLisa. Because IL-2 signals through JAK3, this assay provides a measure of JAK3 cellular potency.
Phosphorylated STATS was measured via the AlphaLISA SureFire Ultra pSTAT5 (Tyr694/699) kit (PerkinElmer).
Human T cells from the Tall-1 cell line were cultured in a 37° C., 5% CO2 humidified incubator in RPMI (Life Technologies) supplemented with 15% Heat Inactivated Fetal Bovine Serum (FBS, Life Technologies), 2 mM Glutamax (Life Technologies), 25 mM HEPES (Life Technologies) and 1× Pen/Strep (Life Technologies). Compounds were serially diluted in DMSO and dispensed acoustically to empty wells. Assay media (phenol red-free DMEM (Life Technologies) supplemented with 10% FBS (ATCC)) was dispensed (4 μL/well) and plates shaken at 900 rpm for 10 mins. Cells were seeded at 45,000 cells/well in assay media (4 μL/well), and incubated at 37° C., 5% CO2 for 1 hour, followed by the addition of IL-2 (R&D Systems; final concentration 300 ng/ml) in pre-warmed assay media ([…]) for 30 minutes. After cytokine stimulation, cells were lysed with 6 ul of 3× AlphaLisa Lysis Buffer (PerkinElmer) containing 1× PhosStop and Complete tablets (Roche). The lysate was shaken at 900 rpm for 10 minutes at room temperature (RT). Phosphorylated STATS was measured via the pSTAT5 AlphaLisa kit (PerkinElmer). Freshly prepared acceptor bead mixture was dispensed onto lysate (5 μL) under green filtered <100 lux light. Plates were shaken at 900 rpm for 2 mins, briefly spun down, and incubated for 2 hrs at RT in the dark. Donor beads were dispensed (5 μL) under green filtered <100 lux light. Plates were shaken at 900 rpm for 2 minutes, briefly spun down, and incubated overnight at RT in the dark. Luminescence was measured with excitation at 689 nm and emission at 570 nm using an EnVision plate reader (PerkinElmer) under green filtered <100 lux light.
To determine the inhibitory potency of test compounds in response to IL-2, the average emission intensity of beads bound to pSTAT5 was measured in a human T cell line. IC50 values were determined from analysis of the inhibition curves of signal intensity versus compound concentration. Data are expressed as pIC50 (negative decadic logarithm IC50) values (mean±standard deviation).

[2] = 1 h pre-incubation, ATP at Km, pIC50 converted to pKi by Cheng-Prusoff

SMILES | JAK 3 (pKi) (JAK3; [2]) | JAK3 (pKi)-JAK1 (pKi) (JAK3) | JAK 1 (pKi) (JAK1) | Ki (JAK3; [2]) [nM] | pKi (JAK1) | IC50 [1] [nM] | Ki (JAK3) [nM]
C=CC(=O)N1CCC(N(C)c2cc(-c3ccc(O)cc3)cn3cncc23)CC1 [Example 17] | C (C represents a pKi value between 8 and 9 (Ki between 10 nM and 1 nM)) | B (B represents a value of 2.3 to 3) | E (E represents a pKi value of 7 or below (Ki of 100 nM or above)) |  |  |  | 
C=CC(=O)N1[C@@H]2CC[C@H]1C[C@H](Nc1cc(-c3ccc(O)cc3)cn3cncc13)C2 [Example 50] |  | B (B represents a value of 2.3 to 3) | E (E represents a pKi value of 7 or below (Ki of 100 nM or above)) | 1 to 10 |  |  | 
C=CC(=O)N1CCC(Oc2cc(-c3cc(F)c(O)cc3CC)cn3cncc23)CC1 [Example 47] | A (A represents a pKi value≥10 (Ki≤0.1 nM)) | B (B represents a value of 2.3 to 3) |  |  | 7.00 to 8.00 | ≤ 31.6 | 
C=CC(=O)N1[C@@H]2CC[C@H]1C[C@@H](Oc1cc(-c3ccc(O)cc3)cn3cncc13)C2 [Example 36] | A (A represents a pKi value≥10 (Ki≤0.1 nM)) | A (A represents a value of 3 or above) | E (E represents a pKi value of 7 or below (Ki of 100 nM or above)) |  |  | 31.6 to 200 | 
C=CC(=O)N1CC(COc2cc(-c3ccc(O)cc3C(F)(F)F)cn3cncc23)C1 [Example 42] |  | A (A represents a value of 3 or above) | E (E represents a pKi value of 7 or below (Ki of 100 nM or above)) | 0.1 to 1 |  | 200 to 1000 | 
C=CC(=O)N1CC2(CCC2Oc2cc(-c3cc(F)c(O)cc3CC)cn3cncc23)C1 (stereo not drawn) [Example 46] |  | B (B represents a value of 2.3 to 3) | E (E represents a pKi value of 7 or below (Ki of 100 nM or above)) | 0.1 to 1 |  | 31.6 to 200 | 
C=CC(=O)N1CC(CSc2cc(-c3ccc(O)cc3)cn3cncc23)C1 [Example 29] |  | A (A represents a value of 3 or above) | E (E represents a pKi value of 7 or below (Ki of 100 nM or above)) | 0.1 to 1 |  | 200 to 1000 | 
C=CC(=O)N1CC(COc2cc(-c3cc(F)c(O)c(F)c3)cn3cncc23)C1 [Example 32] |  | A (A represents a value of 3 or above) | E (E represents a pKi value of 7 or below (Ki of 100 nM or above)) | 0.1 to 1 |  | 200 to 1000 | 
C=CC(=O)N1CC[C@H](Oc2cc(-c3ccc(O)cc3)cn3cncc23)C[C@@H]1C [Example 38] |  | A (A represents a value of 3 or above) | E (E represents a pKi value of 7 or below (Ki of 100 nM or above)) | 0.1 to 1 |  | 31.6 to 200 | 
C=CC(=O)N1CCC[C@H](Nc2cc(-c3ccc(O)cc3)cn3cncc23)C1 [Example 51] |  | B (B represents a value of 2.3 to 3) | E (E represents a pKi value of 7 or below (Ki of 100 nM or above)) | 1 to 10 |  |  | 
C=CC(=O)N1[C@@H]2CC[C@H]1C[C@H](Oc1cc(-c3cc(F)c(O)cc3CC)cn3cncc13)C2 [Example 48] | A (A represents a pKi value≥10 (Ki≤0.1 nM)) | A (A represents a value of 3 or above) |  |  | 7.00 to 8.00 | ≤ 31.6 | 
C=CC(=O)N1[C@H](C)C[C@H](Oc2cc(-c3ccc(O)cc3)cn3cncc23)C[C@@H]1C [Example 40] |  | B (B represents a value of 2.3 to 3) | E (E represents a pKi value of 7 or below (Ki of 100 nM or above)) | 1 to 10 |  | 200 to 1000 | 
C=CC(=O)N1CC(CNc2cc(-c3ccc(O)cc3)cn3cncc23)C1 [Example 52] |  | B (B represents a value of 2.3 to 3) | E (E represents a pKi value of 7 or below (Ki of 100 nM or above)) | 1 to 10 |  |  | 
C=CC(=O)N1CC(COc2cc(-c3ccc(O)cc3)cn3cnnc23)C1 [Example 5, 1-(3-(((6-(4-hydroxyphenyl)-[1,2,4]triazolo[4,3-a]pyridin-8-yl)oxy)methyl)azetidin-1-yl)prop-2-en-1-one] | A (A represents a pKi value≥10 (Ki≤0.1 nM)) | A (A represents a value of 3 or above) | E (E represents a pKi value of 7 or below (Ki of 100 nM or above)) |  |  | 200 to 1000 | 
C=CC(=O)N1CCC(Oc2cc(-c3cc(F)c(O)cc3CC)cn3cncc23)C(F)(F)C1 (stereo not drawn) [Example 49] |  | C (C represents a value of 1.8 to 2.3) |  |  | 7.00 to 8.00 | ≤ 31.6 | 0.1
C=CC(=O)N1CC(COc2cc(-c3cc(C)c(O)c(C)c3)cn3cncc23)C1 [Example 35] |  | A (A represents a value of 3 or above) | E (E represents a pKi value of 7 or below (Ki of 100 nM or above)) | 0.1 to 1 |  | 200 to 1000 | 
CN(C)C/C=C/C(=O)N1CC(COc2cc(-c3ccc(O)cc3)cn3cncc23)C1 [Example 19] |  | A (A represents a value of 3 or above) | E (E represents a pKi value of 7 or below (Ki of 100 nM or above)) | 0.1 to 1 |  | 200 to 1000 | 
C=CC(=O)N1CC(COc2cc(-c3cc(C)c(O)cc3C)cn3cncc23)C1 [Example 43] |  | A (A represents a value of 3 or above) | E (E represents a pKi value of 7 or below (Ki of 100 nM or above)) | 0.1 to 1 |  | 31.6 to 200 | 
CCc1cc(O)c(F)cc1-c1cc(O[C@H]2CCCN(C(=O)/C=C/CN(C)C)C2)c2cncn2c1 [Example 18] |  | B (B represents a value of 2.3 to 3) | E (E represents a pKi value of 7 or below (Ki of 100 nM or above)) | 0.1 to 1 |  |  | 
CN(C)C/C=C/C(=O)N1CC(COc2cc(-c3ccc(O)c(F)c3)cn3cncc23)C1 [Example 22] |  | A (A represents a value of 3 or above) | E (E represents a pKi value of 7 or below (Ki of 100 nM or above)) | 0.1 to 1 |  | 200 to 1000 | 
CCc1cc(O)ccc1-c1cc(OCC2CN(C(=O)/C=C/CN(C)C)C2)c2cncn2c1 [Example 25] |  | A (A represents a value of 3 or above) | E (E represents a pKi value of 7 or below (Ki of 100 nM or above)) | 0.1 to 1 |  | 200 to 1000 | 
C=CC(=O)N1[C@@H]2CC[C@H]1C[C@H](Oc1cc(-c3ccc(O)cc3)cn3cncc13)C2 [Example 10, 1-((1R,3S,5S)-3-((6-(4-hydroxyphenyl)imidazo[1,5-a]pyridin-8-yl)oxy)-8-azabicyclo[3.2.1]octan-8-yl)prop-2-en-1-one] |  |  |  |  |  | 31.6 to 200 | 
C=CC(=O)N1CC(COc2cc(-c3ccc(O)cc3OC)cn3cncc23)C1 [Example 45] |  | A (A represents a value of 3 or above) | E (E represents a pKi value of 7 or below (Ki of 100 nM or above)) | 0.1 to 1 |  | 200 to 1000 | 
